# “And” between values parts separate entries of the source, which are not always exact repeats. Equal entries are not always repeated. Inconclusive results and toxic doses are left out.
# Tested on: BDF1 mice, P388 leukemia ip, median survival T/C
# Assay: NCI In Vivo Anticancer Drug Screen. Data for tumor model P388 Leukemia (intraperitoneal) in B6D2F1 (BDF1) mice
# Settings: endpoint: median survival time, higher = longer survival
# Method in brief: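 Vehicle-dosed animals serve as the reference; survival of compound-dosed, tumour-implanted mice is divided by it.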
# [1] = dose: 25.0 mg/kg/injection, schedule: Q01DX001 (ip), vehicle: saline
# [2] = dose: 50.0 mg/kg/injection, schedule: Q01DX001 (ip), vehicle: saline
# [3] = dose: 100.0 mg/kg/injection, schedule: Q04DX003 (ip), vehicle: saline with Tween-80
# [4] = dose: 50.0 mg/kg/injection, schedule: Q01DX009 (ip), vehicle: saline with Tween-80
# [5] = dose: 5.0 mg/kg/injection, schedule: Q04DX003 (ip), vehicle: saline
# [6] = dose: 12.5 mg/kg/injection, schedule: Q01DX009 (ip), vehicle: saline with Tween-80
# [7] = dose: 25.0 mg/kg/injection, schedule: Q01DX009 (ip), vehicle: saline with Tween-80
# [8] = dose: 100.0 mg/kg/injection, schedule: Q01DX009 (ip), vehicle: saline with Tween-80
# [9] = dose: 200.0 mg/kg/injection, schedule: Q01DX009 (ip), vehicle: saline with Tween-80
# [10] = dose: 25.0 mg/kg/injection, schedule: Q01DX009 (ip), vehicle: saline
# [11] = dose: 50.0 mg/kg/injection, schedule: Q01DX009 (ip), vehicle: saline
smiles,measurement,setting,value
C/C=C/CCCCCCCC,T/C,"dose: 100.0 mg/kg/injection, schedule: Q01DX001 (ip), vehicle: saline with Tween-80",104 % of control
same,T/C,"dose: 200.0 mg/kg/injection, schedule: Q01DX001 (ip), vehicle: saline with Tween-80",104 % of control
same,T/C,"dose: 400.0 mg/kg/injection, schedule: Q01DX001 (ip), vehicle: saline with Tween-80",119 % of control
C[S+](C)N(c1ccc(Cl)cc1)C(C)(C)C,T/C,[1],104 % of control
same,T/C,[2],111 % of control
Nc1nc2c(c(=O)[nH]1)NC(CCNc1ccc(C(=O)O)cc1)CN2 (stereo not drawn),T/C,[3],86 % of control
Cn1nc([N+](=O)[O-])sc1=N,T/C,"dose: 50.0 mg/kg/injection, schedule: Q01DX001 (ip), vehicle: saline sonified",105 % of control
same,T/C,"dose: 100.0 mg/kg/injection, schedule: Q01DX001 (ip), vehicle: saline sonified",105 % of control
same,T/C,"dose: 200.0 mg/kg/injection, schedule: Q01DX001 (ip), vehicle: saline sonified",110 % of control
C[N+]1(C)N=C([O-])N(c2ccccc2[N+](=O)[O-])C1=O,T/C,[4],88 % of control
Cc1cc(Oc2ccc(Cl)cc2NC(=O)Nc2cccc(C(F)(F)F)c2)cc(S(=O)(=O)O)c1Cl,T/C,"dose: 25.0 mg/kg/injection, schedule: Q01DX001 (ip), vehicle: other",100 % of control
same,T/C,"dose: 50.0 mg/kg/injection, schedule: Q01DX001 (ip), vehicle: other",108 % of control
same,T/C,"dose: 100.0 mg/kg/injection, schedule: Q01DX001 (ip), vehicle: other",100 % of control
N#CC1CCCCC1C1(C#N)CCCCC1Cc1ccc2ccccc2n1 (stereo not drawn),T/C,"dose: 100.0 mg/kg/injection, schedule: Q04DX002 (ip), vehicle: saline with Tween-80",96 % of control
same,T/C,"dose: 200.0 mg/kg/injection, schedule: Q04DX002 (ip), vehicle: saline with Tween-80",104 % of control
same,T/C,"dose: 400.0 mg/kg/injection, schedule: Q04DX002 (ip), vehicle: saline with Tween-80",107 % of control
CC(=O)/C(C)=C/C=O,T/C,"dose: 0.25 mg/kg/injection, schedule: Q01DX009 (ip), vehicle: water",116 % of control
same,T/C,"dose: 0.5 mg/kg/injection, schedule: Q01DX009 (ip), vehicle: water",89 % of control and 96 % of control and 116 % of control
same,T/C,"dose: 1.0 mg/kg/injection, schedule: Q01DX009 (ip), vehicle: water",97 % of control and 103 % of control and 116 % of control
same,T/C,"dose: 2.0 mg/kg/injection, schedule: Q01DX009 (ip), vehicle: water",94 % of control and 97 % of control
same,T/C,"dose: 4.0 mg/kg/injection, schedule: Q01DX009 (ip), vehicle: water",96 % of control and 97 % of control and 116 % of control
same,T/C,"dose: 8.0 mg/kg/injection, schedule: Q01DX009 (ip), vehicle: water",103 % of control
O=S(=O)(O)CCBr,T/C,"dose: 265.0 mg/kg/injection, schedule: Q01DX001 (ip), vehicle: saline",90 % of control
same,T/C,"dose: 267.0 mg/kg/injection, schedule: Q01DX001 (ip), vehicle: saline",100 % of control
same,T/C,"dose: 400.0 mg/kg/injection, schedule: Q01DX001 (ip), vehicle: saline",86 % of control and 90 % of control
COc1cc2c(c(OC)c1OC)-c1ccc(OC)c(=O)cc1[C@@H](NC(=O)c1ccccc1)CC2,T/C,"dose: 0.06 mg/kg/injection, schedule: Q01DX009 (ip), vehicle: saline sonified",112 % of control
same,T/C,"dose: 0.12 mg/kg/injection, schedule: Q01DX009 (ip), vehicle: saline sonified",116 % of control
same,T/C,"dose: 0.5 mg/kg/injection, schedule: Q01DX009 (ip), vehicle: saline sonified",163 % of control
same,T/C,"dose: 1.0 mg/kg/injection, schedule: Q01DX009 (ip), vehicle: saline sonified",190 % of control
same,T/C,"dose: 2.0 mg/kg/injection, schedule: Q01DX009 (ip), vehicle: saline sonified",254 % of control and 109 % of control
same,T/C,"dose: 3.3 mg/kg/injection, schedule: Q04DX003 (ip), vehicle: saline",159 % of control
same,T/C,"dose: 4.0 mg/kg/injection, schedule: Q01DX009 (ip), vehicle: saline sonified",272 % of control
same,T/C,[5],200 % of control
same,T/C,"dose: 6.0 mg/kg/injection, schedule: Q01DX009 (ip), vehicle: saline sonified",162 % of control
same,T/C,"dose: 7.5 mg/kg/injection, schedule: Q04DX003 (ip), vehicle: saline",204 % of control
COc1ccc(C(=O)C(C)Br)c(OCc2ccccc2)c1OC (stereo not drawn),T/C,[6],100 % of control
same,T/C,[7],95 % of control
same,T/C,[4],100 % of control
same,T/C,[8],90 % of control
same,T/C,[3],95 % of control
same,T/C,[9],95 % of control
same,T/C,"dose: 200.0 mg/kg/injection, schedule: Q04DX003 (ip), vehicle: saline with Tween-80",114 % of control
same,T/C,"dose: 400.0 mg/kg/injection, schedule: Q04DX003 (ip), vehicle: saline with Tween-80",104 % of control
COc1cc2c(cc1OC)C(C)=NCC2,T/C,"dose: 3.0 mg/kg/injection, schedule: Q01DX001 (ip), vehicle: saline",104 % of control
same,T/C,"dose: 6.0 mg/kg/injection, schedule: Q01DX001 (ip), vehicle: saline",104 % of control
same,T/C,"dose: 12.0 mg/kg/injection, schedule: Q01DX001 (ip), vehicle: saline",108 % of control
same,T/C,"dose: 12.0 mg/kg/injection, schedule: Q01DX009 (ip), vehicle: saline",100 % of control
same,T/C,"dose: 12.0 mg/kg/injection, schedule: Q04DX003 (ip), vehicle: saline",95 % of control
same,T/C,[1],104 % of control
same,T/C,[10],100 % of control
same,T/C,"dose: 25.0 mg/kg/injection, schedule: Q04DX003 (ip), vehicle: saline",104 % of control
same,T/C,[2],108 % of control
same,T/C,[11],95 % of control
same,T/C,"dose: 50.0 mg/kg/injection, schedule: Q04DX003 (ip), vehicle: saline",100 % of control
C=CCOCCN1CCN(CCCN2c3ccccc3Sc3ccc(C(F)(F)F)cc32)CC1,T/C,[5],104 % of control
same,T/C,"dose: 10.0 mg/kg/injection, schedule: Q04DX003 (ip), vehicle: saline",121 % of control
CO[C@H]1Nc2c(ccc(C)c2O)C(=O)N2C=C(/C=C/C(N)=O)C[C@@H]12,T/C,"dose: 0.02 mg/kg/injection, schedule: Q01DX010 (ip), vehicle: carboxymethylcellulose (CMC)",230 % of control
same,T/C,"dose: 0.05 mg/kg/injection, schedule: Q01DX010 (ip), vehicle: carboxymethylcellulose (CMC)",230 % of control
same,T/C,"dose: 0.08 mg/kg/injection, schedule: Q01DX009 (ip), vehicle: Klucel (hydroxypropylcellulose) (HPC)",242 % of control
same,T/C,"dose: 0.08 mg/kg/injection, schedule: Q01DX009 (ip), vehicle: saline",150 % of control
same,T/C,"dose: 0.1 mg/kg/injection, schedule: Q01DX010 (ip), vehicle: carboxymethylcellulose (CMC)",210 % of control
same,T/C,"dose: 0.12 mg/kg/injection, schedule: Q01DX009 (ip), vehicle: saline with Tween-80",168 % of control
same,T/C,"dose: 0.18 mg/kg/injection, schedule: Q01DX009 (ip), vehicle: Klucel (hydroxypropylcellulose) (HPC)",238 % of control
same,T/C,"dose: 0.2 mg/kg/injection, schedule: Q01DX010 (ip), vehicle: carboxymethylcellulose (CMC)",185 % of control
same,T/C,"dose: 0.25 mg/kg/injection, schedule: Q01DX010 (ip), vehicle: saline",90 % of control
same,T/C,"dose: 151.0 micrograms/kg/injection, schedule: Q04DX003 (ip), vehicle: saline + alcohol",186 % of control
same,T/C,"dose: 216.0 micrograms/kg/injection, schedule: Q04DX003 (ip), vehicle: saline + alcohol",177 % of control and 189 % of control
same,T/C,"dose: 252.0 micrograms/kg/injection, schedule: Q04DX003 (ip), vehicle: saline + alcohol",208 % of control
same,T/C,"dose: 360.0 micrograms/kg/injection, schedule: Q04DX003 (ip), vehicle: saline + alcohol",183 % of control and 196 % of control
same,T/C,"dose: 420.0 micrograms/kg/injection, schedule: Q04DX003 (ip), vehicle: saline + alcohol",215 % of control
same,T/C,"dose: 600.0 micrograms/kg/injection, schedule: Q04DX003 (ip), vehicle: saline + alcohol",94 % of control and 112 % of control
CC1=CC(C(O)CC(C)C)C(C)(Cc2ccc(C)cn2)NC1c1ccccc1 (stereo not drawn),T/C,"dose: 6.25 mg/kg/injection, schedule: Q01DX009 (ip), vehicle: saline with Tween-80",107 % of control
same,T/C,[6],102 % of control
same,T/C,[7],103 % of control
O=C(NCCNc1ccc(F)cc1)C12CC3CC(CC(C3)C1)C2,T/C,[4],91 % of control
same,T/C,[8],104 % of control
same,T/C,[9],97 % of control
C=C1C(=O)O[C@H]2[C@H]1[C@H](OC(=O)/C(C)=C\C)CC(=C)[C@@H]1[C@H](O)[C@H]3O[C@@]3(C)[C@@]12O,T/C,"dose: 5.0 mg/kg/injection, schedule: Q01DX010 (ip), vehicle: carboxymethylcellulose (CMC)",104 % of control
same,T/C,"dose: 10.0 mg/kg/injection, schedule: Q01DX010 (ip), vehicle: carboxymethylcellulose (CMC)",104 % of control
same,T/C,"dose: 20.0 mg/kg/injection, schedule: Q01DX010 (ip), vehicle: carboxymethylcellulose (CMC)",113 % of control
C[N+](C)(C)Cc1ccccc1C[N+](C)(C)C,T/C,[10],116 % of control
same,T/C,[11],112 % of control
same,T/C,"dose: 100.0 mg/kg/injection, schedule: Q01DX009 (ip), vehicle: saline",112 % of control

# Source: PubChem BioAssay AID328 (DTP/NCI, 2004)
